Results on nine molecules are retold here after patent publication EP1538159A1, “Substituted N-benzyl-lactam derivatives as melanocortin-4 receptor agonists” (Santhera Pharmaceuticals (Schweiz) GmbH, priority 2003, dated 2005).

pEC50, pIC50: −log10 of the molar value.

Assay [1] has as its target T1, hMC-4R (Homo sapiens, UniProt P32245).
T1 construct: expressed in transfected cells; host or cells: HEK293
The assay can be described thus: Functional cellular cAMP assay (fluorescence polarization). It is filed as cell-based. The following applies: for pEC50: HEK293 cells, cAMP production; for % activation: cAMP production compared to stimulation with NDP-alpha-MSH; for fold improvement of functional activity: compared with WO030009850A1, Examples 1 and 34; for fold better functional activity: hMC4 EC50 compared with WO030009850A1, Example 166. As to the method: A functional cellular assay, based on competition between unlabeled cAMP and a fixed quantity of fluorescence labeled cAMP for a limited number of binding sites on a cAMP specific antibody, is used to discriminate melanocortin receptor agonists from antagonists by fluorescence polarization.
HEK293 cells expressing one of the human melanocortin receptors are transferred to 384 well microtiter plates, an appropriate amount of cAMP antibody is added, followed by the addition of different concentrations of the test compound to effect cAMP production. Cells are lysed and a fluorescence labeled cAMP conjugate is dispensed. The plate is read on a fluorescence polarization microplate reader and the amount of cAMP produced as a response to a test compound is compared to the production of cAMP resulting from stimulation with NDP-alpha-MSH.
To define antagonistic activity of a test compound, the compound is dispensed at different concentrations to cells stimulated by an appropriate amount of NDP-α-MSH. Inhibition of cAMP production is determined by comparing the inhibition of cAMP production of the test compound to the inhibition of cAMP production by a known inhibitor tested at the same concentrations.

Assay [2] has as its target T1, hMC-4R. The assay can be described thus: Membrane binding assay (fluorescence polarization, fluorescence labeled NDP-alpha-MSH competition). Conditions: HEK293 cell membrane preparations. As to the method: (§1) A membrane binding assay is used to identify competitive inhibitors of fluorescence labeled NDP-alpha-MSH binding to HEK293 cell membrane preparations expressing human melanocortin receptors.
(§2) The test compound or unlabeled NDP-alpha-MSH is dispensed at varying concentrations to a 384 well microtiter plate. Fluorescence labeled NDP-alpha-MSH is dispensed at a single concentration, followed by addition of membrane preparations. The plate is incubated for 5 h at room temperature.
(§3) The degree of fluorescence polarization is determined with a fluorescence polarization microplate reader.
A general note: In fluorescence polarisation assays a small probe gives low polarisation when free and higher when bound to something large.

Assay [3] deals with T2, hMC-3R (Homo sapiens, UniProt P41968).
T2 construct: expressed in transfected cells; host or cells: HEK293
The description is as above. Conditions: HEK293 cell membrane preparations. As to the method: as §1, §2, §3

For assay [4], the target named is T3, hMC-5R (Homo sapiens, UniProt P33032).
T3 construct: expressed in transfected cells; host or cells: HEK293
Described as above. Conditions: HEK293 cell membrane preparations. The method, then:
as §1, §2, §3

T2 sequence (P41968 whole entry): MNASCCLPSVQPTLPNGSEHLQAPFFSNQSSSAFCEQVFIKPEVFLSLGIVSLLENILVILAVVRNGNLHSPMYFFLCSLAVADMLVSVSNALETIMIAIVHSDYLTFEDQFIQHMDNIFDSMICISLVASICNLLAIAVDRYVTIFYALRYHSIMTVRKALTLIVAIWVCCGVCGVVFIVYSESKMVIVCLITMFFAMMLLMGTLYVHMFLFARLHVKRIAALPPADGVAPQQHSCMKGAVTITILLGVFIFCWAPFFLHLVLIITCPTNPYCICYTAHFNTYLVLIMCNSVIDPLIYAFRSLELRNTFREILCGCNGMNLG
T3 sequence (P33032 whole entry): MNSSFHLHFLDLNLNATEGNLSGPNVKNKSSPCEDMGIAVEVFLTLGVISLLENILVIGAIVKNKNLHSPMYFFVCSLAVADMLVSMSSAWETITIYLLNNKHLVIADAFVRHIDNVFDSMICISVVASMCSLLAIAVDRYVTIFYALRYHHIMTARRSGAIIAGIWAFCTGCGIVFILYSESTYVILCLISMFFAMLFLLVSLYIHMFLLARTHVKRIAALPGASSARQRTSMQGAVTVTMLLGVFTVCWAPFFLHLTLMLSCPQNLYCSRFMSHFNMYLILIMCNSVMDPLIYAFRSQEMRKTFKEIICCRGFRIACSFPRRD
T1 sequence (P32245 whole entry): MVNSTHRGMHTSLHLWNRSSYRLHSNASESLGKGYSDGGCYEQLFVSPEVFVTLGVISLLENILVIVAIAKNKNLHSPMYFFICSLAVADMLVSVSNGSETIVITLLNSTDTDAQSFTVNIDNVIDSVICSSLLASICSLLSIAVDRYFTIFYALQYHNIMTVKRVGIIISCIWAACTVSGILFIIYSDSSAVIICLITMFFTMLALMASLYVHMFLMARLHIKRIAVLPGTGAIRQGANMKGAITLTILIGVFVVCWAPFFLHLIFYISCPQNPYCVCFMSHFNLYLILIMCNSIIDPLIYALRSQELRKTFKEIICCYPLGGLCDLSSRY

Usually pEC50 stands for −log10 of the EC50, conventionally taken in molar units. The low end stands for a high EC50, the high end for a low EC50. What is called pIC50 is −log10 of the IC50, conventionally taken in molar units. Low readings indicate a large IC50, high ones a small IC50. With `NC1c2ccccc2CCC1C(=O)N[C@H](Cc1ccc(Cl)cc1)C(=O)N1CCC(c2ccccc2CN2CCCC2=O)CC1` (single isomer, unassigned) [Example 2A], in assay [1], the pEC50 was 7.00 and the “% activation” value is listed as 86%. Besides, the negative-log IC50 (pIC50) in assay [2] was 7.77.
Taken in the same sequence, the figures for `NC1c2ccccc2CCC1C(=O)N[C@H](Cc1ccc(Cl)cc1)C(=O)N1CCC(c2ccccc2CN2CCCC2=O)CC1` (single isomer, unassigned) [Example 2B] were 7.54, 90% and 8.15.
Turning to `O=C(N[C@H](Cc1ccc(Cl)cc1)C(=O)N1CCC(c2ccccc2CN2CCCC2=O)CC1)C1CNC1` [WO030009847 Example 153, (R)-azetidine-3-carboxylic acid (1-(4-chloro-benzyl)-2-oxo-2-{4-[2-(2-oxo-pyrrolidin-1-ylmethyl)-phenyl]-piperidin-1-yl}-ethyl)-amide, reference compound], the pEC50 in assay [1] is 5.99. In assay [1], the “% activation” value turned out to be 107%. Also, the pIC50 in assay [3] is 5.28; in assay [4], 5.48; in assay [2], 7.40.
In the same order, the values of `O=C(N[C@H](Cc1ccc(Cl)cc1)C(=O)N1CCN(c2ccccc2CN2CCCC2=O)CC1)C1CNC1` [WO030009850 Example 166, (R)-azetidine-3-carboxylic acid (1-(4-chloro-benzyl)-2-oxo-2-{4-[2-(2-oxo-pyrrolidin-1-ylmethyl)-phenyl]-piperazin-1-yl}-ethyl)-amide, reference compound] are 5.55, 90%, 4.72, 5.16 and 6.96.
Consider `CS(=O)(=O)Nc1ccccc1N1CCN(C(=O)[C@@H](Cc2ccc(Cl)cc2)NC(=O)C2CNC2)CC1` [WO030009850 Example 34, (R)-azetidine-3-carboxylic acid {1-(4-chloro-benzyl)-2-[4-(2-methanesulfonylamino-phenyl)-piperazin-1-yl]-2-oxo-ethyl}-amide, reference compound], for which the “Functional Activity hMC-4R, % @10 µM” value in assay [1] (@10 µM) stood at 11%@10 µM. This molecule also gave a pIC50 in assay [2] of 5.54.
As to `NC1c2ccccc2CCC1C(=O)N[C@H](Cc1ccc(Cl)cc1)C(=O)N1CCN(c2ccccc2CN2CCCC2=O)CC1` (single isomer, unassigned) [Example 4B], in assay [1], the pEC50 is 6.74, the “% activation” value turned out to be 91%, the “fold improvement of functional activity” value is above 21 fold and the “fold better functional activity” value is 16 fold. The “Binding Activity hMC-3R, % @10 uM” value in assay [3] is listed as 47%@10 uM. This molecule showed a negative logarithm of the IC50 (pIC50) in assay [4] of 5.74. Besides, the negative-log IC50 (pIC50) in assay [2] was 7.68.
The molecule `O=C(N[C@H](Cc1ccc(Cl)cc1)C(=O)N1CCC(c2ccccc2CN2CCCC2=O)CC1)[C@H]1Cc2ccccc2CN1` [Example 1] had a negative logarithm of the EC50 (pEC50) in assay [1] of 7.22. Besides, the “% activation” value in assay [1] was determined as 112%. For the same molecule, the pIC50 in assay [3] was 5.14; in assay [4] it was 6.09; in assay [2] it was 7.77.
With `O=C(N[C@H](Cc1ccc(Cl)cc1)C(=O)N1CCN(c2ccccc2CN2CCCC2=O)CC1)[C@H]1Cc2ccccc2CN1` [Example 3], in assay [1], the pEC50 was 6.59, the “% activation” value turned out to be 109%, the “fold improvement of functional activity” value was “more than 14 fold” and the “fold better functional activity” value was determined as 11 fold. In addition, in assay [3], the “Binding Activity hMC-3R, % @10 uM” value came to 41%@10 uM. For the same molecule, in assay [4], the pIC50 is 5.89. This molecule also had a pIC50 in assay [2] of 7.54.
Take `CS(=O)(=O)Nc1ccccc1N1CCN(C(=O)[C@@H](Cc2ccc(Cl)cc2)NC(=O)[C@H]2Cc3ccccc3CN2)CC1` [WO030009850 Example 1, (R,R)-1,2,3,4-tetrahydro-isoquinoline-3-carboxylic acid {1-(4-chloro-benzyl)-2-[4-(2-methanesulfonylamino-phenyl)-piperazin-1-yl]-2-oxo-ethyl}-amide, reference compound]: in assay [1], the negative logarithm of the EC50 (pEC50) is 5.43 and the “% activation” value is 96%. For the same molecule, the pIC50 in assay [2] was 6.30.
